Measured values published in ChEMBL document CHEMBL1137838, “Synthesis and structure-activity relationships of andrographolide analogues as novel cytotoxic agents” (2004).

Key:
Format in all cases: functional
SK-OV-3 = experiment: Concentration causing 50% inhibition of cancer cell growth against human ovarian SKOV3 cell line
SW-620 = experiment: Concentration causing 50% inhibition of cancer cell growth against human colon SW620 cell line
DU-145 = experiment: Concentration causing 50% inhibition of cancer cell growth against human prostate DU145 cell line
A498 = experiment: Concentration causing 50% inhibition of cancer cell growth against human renal A498 cell line
NCI-H522 = experiment: Concentration causing 50% inhibition of cancer cell growth against human lung H522 cell line
U-251 = experiment: Concentration causing 50% inhibition of cancer cell growth against human CNS U251 cell line
NCI/ADR-RES = experiment: Concentration causing 50% inhibition of cancer cell growth against human breast MCF-7/ADR cell line

SMILES	IG50 (SK-OV-3) [µM]	IG50 (SW-620) [µM]	IG50 (DU-145) [µM]	IG50 (A498) [µM]	IG50 (NCI-H522) [µM]	IG50 (U-251) [µM]	IG50 (NCI/ADR-RES) [µM]
CC(=O)OC[C@@]1(C)[C@H]2CC[C@@]3(CO3)[C@@H](C/C=C3/C(=O)OC[C@H]3OC(C)=O)[C@]2(C)CC[C@H]1OC(C)=O	25	1	15	0.25	15	2.5	5
CC(=O)OC[C@@]1(C)[C@H]2CC[C@@H](C=O)[C@@H](C/C=C3/C(=O)OC[C@H]3OC(C)=O)[C@]2(C)CC[C@H]1OC(C)=O	3	32	12	–	34	62	–
CCC(=O)OC[C@@]1(C)[C@H]2CC[C@@]3(CO3)[C@@H](C/C=C3/C(=O)OC[C@H]3OC(=O)/C=C/c3ccc(OC)cc3)[C@]2(C)CC[C@H]1OC(=O)CC	2	0.6	2	3	4.8	3	3
C=C1CC[C@@H]2[C@](C)(CO)[C@H](O)CC[C@@]2(C)[C@@H]1/C=C/C1=CCOC1=O	–	>100	2	–	>100	81	>100
C=C1CC[C@@H]2[C@](C)(CO)[C@H](O)CC[C@@]2(C)[C@@H]1C/C=C1/C(=O)OC[C@H]1O [ANDROGRAPHOLIDE]	15	10	20	30	17	3	15
C=C1CC[C@@H]2[C@](C)(CO)[C@H](O)CC[C@@]2(C)[C@@H]1CCC1=CCOC1=O [DEOXYANDROGRAPHOLIDE]	0.18	54	5	–	>100	>100	–
CC(=O)OC[C@@]1(C)[C@H]2CC[C@@]3(CO3)[C@@H](C/C=C3/C(=O)OC[C@H]3OC(=O)CNC(=O)OC(C)(C)C)[C@]2(C)CC[C@H]1OC(C)=O	8	3	7	20	4	4	4
CCC(=O)O[C@@H]1COC(=O)/C1=C/C[C@@H]1[C@@]2(CC[C@@H]3[C@](C)(CO)[C@H](OC(=O)CC)CC[C@]31C)CO2	3	7	20	40	40	35	30
CC(C)(C)OC(=O)NCC(=O)O[C@@H]1COC(=O)/C1=C/C[C@@H]1[C@@]2(CC[C@@H]3[C@](C)(CO)[C@H](O)CC[C@]31C)CO2	6	40	20	5	>100	40	7
CC(=O)O[C@@H]1CC[C@]2(C)[C@H](CC[C@@]3(CO3)[C@H]2C/C=C2/C(=O)OC[C@H]2O)[C@]1(C)CO	50	>100	50	20	60	45	20
CCC(=O)OC[C@@]1(C)[C@H]2CC[C@@]3(CO3)[C@@H](C/C=C3/C(=O)OC[C@H]3OC(=O)/C=C/c3ccc4c(c3)OCO4)[C@]2(C)CC[C@H]1OC(=O)CC	0.3	65	4	6	3	35	20
CC(=O)O[C@@H]1COC(=O)/C1=C/C[C@@H]1[C@@]2(CC[C@@H]3[C@](C)(CO)[C@H](O)CC[C@]31C)CO2	5	20	25	7	25	50	20
CC(=O)OC[C@@]1(C)[C@H]2CCC3=COC(C4=CCOC4=O)C[C@H]3[C@]2(C)CC[C@H]1OC(C)=O (stereo partly drawn)	40	40	40	–	50	30	40
CCC(=O)OC[C@@]1(C)[C@H]2CC[C@@]3(CO3)[C@@H](C/C=C3/C(=O)OC[C@H]3OC(=O)/C=C/c3ccc(OC)c(OC)c3)[C@]2(C)CC[C@H]1OC(=O)CC	2.5	0.4	2.5	3.5	7.5	2	1.5
C=C1CC[C@@H]2[C@](C)(CO)[C@H](O)CC[C@@]2(C)[C@@H]1C/C=C(/C(=O)O)[C@H](O)CO	>100	>100	>100	4	80	>100	30
CC(=O)O[C@@H]1COC(=O)/C1=C/C[C@@H]1[C@@]2(CC[C@@H]3[C@](C)(CO)[C@H](OC(C)=O)CC[C@]31C)CO2	2.5	55	6.5	6	30	30	20
CC(=O)OC[C@@]1(C)[C@H]2CC[C@@H](CO)[C@@H](C/C=C3/C(=O)OC[C@H]3OC(C)=O)[C@]2(C)CC[C@H]1OC(C)=O	3	7	2	–	19	19	–
CCC(=O)OC[C@@]1(C)[C@H]2CC[C@@]3(CO3)[C@@H](C/C=C3/C(=O)OC[C@H]3OC(=O)CC)[C@]2(C)CC[C@H]1OC(=O)CC	1.36	2	3	–	3	3	–
CC(=O)OC[C@@]1(C)[C@H]2CC[C@@]3(CO3)[C@@H](C/C=C3/C(=O)OC[C@H]3O)[C@]2(C)CC[C@H]1OC(C)=O	>100	20	–	20	–	40	30
C[C@]1(CO)[C@H]2CC[C@@]3(CO3)[C@@H](C/C=C3/C(=O)OC[C@H]3O)[C@]2(C)CC[C@H]1O	4	30	20	30	30	16	20
C=C1CC[C@@H]2[C@](C)(CO)[C@H](O)CC[C@@]2(C)[C@@H]1CCC1C(=O)OC[C@H]1O (stereo partly drawn)	>100	>100	2	–	>100	85	–
CCC(=O)OC[C@@]1(C)[C@H]2CC[C@@]3(CO3)[C@@H](C/C=C3/C(=O)OC[C@H]3OC(=O)/C=C/c3ccccc3)[C@]2(C)CC[C@H]1OC(=O)CC	10	2.5	4	3	20	6	0.08
CCC(=O)OC[C@@]1(C)[C@H]2CC[C@@]3(CO3)[C@@H](C/C=C3/C(=O)OC[C@H]3OC(=O)CNC(=O)OC(C)(C)C)[C@]2(C)CC[C@H]1OC(=O)CC	15	30	20	4	4	20	15
C[C@]1(CO)[C@H]2CC[C@@]3(CO3)[C@@H](C/C=C3/C(=O)OC[C@H]3OC(=O)/C=C/c3ccccc3)[C@]2(C)CC[C@H]1O	4	0.5	5.5	9	6	6	2
